Test results taken from patent US4888414A, “Insulin-binding peptides and uses thereof” (Board of Regents, University of Texas System, priority 1987, dated 1989).
pKd: −log10 of the molar value. Where no end group is shown, it is not given here.

How the values were obtained:
[1] = molecular target: T1, insulin (Homo sapiens, UniProt P01308); experiment: Binding of 125I-insulin to various immobilized peptides; conditions: peptide immobilized from 5 ug/ml; 2 nM 125I-insulin
Description: The binding specificity of iodinated insulin for immobilized peptides was determined. Peptides of various sequences and sizes were immobilized in microtitre wells, as described in Example 1. The peptides utilized were IBP (CVEEAS) and a series of control peptide having the following designations and amino acid sequences: S28, TTHYQKG; S79, AQGHRPQDEG; S81, YGSLPQKAQGHRPQDEG; S82, THYGSLPQKAQGHRPQDEG; and EAE, FSWGAEGQR.
Peptides were dissolved in buffer at a concentration of 5 ug/ml, and immobilized in the wells of the microtitre plate. The immobilized peptides were then incubated with 2 nM ^125 I-insulin in the absence or presence of 3 uM unlabeled insulin, as described above. The specific binding of insulin to immobilized peptide is indicated, alone with the binding as a percentage of the binding of insulin to immobilized IBP. The peptides utilized are indicated on the abcissa. The respective relative binding of insulin (shown in FIG. 5) was IBP-100%, S28-0.3%, S79-1.5%, S81-0.6%, S82-0.2% and EAE-0.3%.

[2] = molecular target: T1, insulin; experiment: Binding of 125I-insulin to immobilized IBP in microtitre wells
Description: Insulin Binding Peptide, synthesized by OCS Laboratories, Inc., Denton, Tex., was immobilized in the wells of flexible, U-bottom 96-well polyvinyl chloride microtitre plates (Falcon, Becton Dickinson Labware). To each well was added 100 ul of the peptide (5 ug/ml in 0.1 M sodium carbonate, pH 9.6). The peptide was allowed to adsorb to the well overnight at 4° C. Unreacted sites in the wells were blocked with 150 ul of 1% ovalbumin (Sigma Chemical Co.) in 0.1M sodium carbonate, pH 9.6, for 1 h at room temperature. The wells were washed two times with phosphate-buffered saline (PBS) containing 0.1% BSA (Fraction V, Sigma Chemical Co.), and then incubated with ^125 I-insulin in PBS, 0.1% BSA, for 3 h at room temperature. The wells were then washed 3 times with PBS-0.1% BSA, and were then excised from the plate and counted in a gamma counter. Total binding of insulin to the IBP was determined with iodinated insulin alone. Nonspecific binding was determined in the presence of radiolabeled insulin plus 3 uM unlabeled insulin. Specific binding was calculated as the difference between total and nonspecific binding. All values are reported as specific binding, unless otherwise indicated. All determinations (both total and nonspecific) were performed in triplicate. Insulin was iodinated by the method of Chloramine T, as previously described (Gavin et al., Proc. Nat. Acad. Sci., Vol. 71, p. 84-88 (1974)).
The peptide was immobilized in the bottom of 96-well microtitre plates, and at zero time, 2 nM ^125 I-insulin, in the absence or presence of 3 uM unlabeled insulin, was added to each of the wells. At the indicated times, the wells were washed with cold PBS, the washed wells were cut from the dish and counted for radioactivity. The indicated data points are average values of specifically bound insulin, and the error bars indicate the range of the data. At 25° C., the binding attained equilibrium within 1.5 h, with a half-time of approximately 20 min. At 4° C., the binding process is slightly slower, requiring approximately 2 h to attain an equilibrium level of binding.
The peptide was immobilized in the bottom of 96-well microtitre plates, and ^125 I-insulin, in the absence or presence of 3 uM unlabeled insulin, was added to the wells. Following incubation at 25° C. for 3 h, the wells were washed, cut from the dish, and counted, as described above. The indicated data points of FIG. 2 are average values of specifically bound insulin, the error bars indicate the range of the data.

[3] = Binding of iodinated polypeptide hormones to immobilized IBP; conditions: 2 nM iodinated hormone; room temperature 3 h
Description: The specificity of the binding of IBP to insulin was determined by incubating iodinated calcitonin, parathyroid hormone or atrial naturiuretic peptide with immobilized IBP. The binding of insulin to IBP appears to be a specific process. The specific binding of the low molecular weight polypeptide hormones calcitonin, parathyroid hormone and atrial naturiuretic peptide is less than 1% of the level of the specific binding of insulin (Ins) to IBP. The insulin-binding peptide was immobilized in the bottom of 96-well microtitre plates. To the wells were then added 2 nM iodinated polypeptide hormones in the absence or presence of at least a 1000-fold excess of unlabeled hormone. Following incubation at room temperature for 3 h, the wells were washed, excised from the plate and ^125 I measured as described above. The specific binding of hormone to the wells is indicated, along with the binding as a percentage of the binding of insulin to the wells. The polypeptide hormones utilized are indicated on the abcissa: Cal, calcitonin; PTH, parathyroid hormone; ANP, atrial naturiuretic peptide; Ins, insulin.

T1 sequence (P01308 25-54 limits assumed, species assumed): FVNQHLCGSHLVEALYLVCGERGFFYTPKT
T1 sequence (P01308 90-110 partner limits assumed, species assumed): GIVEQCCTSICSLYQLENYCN

Substance	relative binding of insulin to immobilized peptide, as percentage of binding to immobilized IBP [1] [%]	specific binding to IBP as percentage of the specific binding of insulin [3]	also measured
AQGHRPQDEG [S79, AQGHRPQDEG]	1.5	–	–
CVEEAS [IBP, NH2 -Cys-Val-Glu-Glu-Ala-Ser-COOH]	–	–	time to attain an equilibrium level of binding ([2]; 4° C., 2 nM 125I-insulin): approximately 2 h; half-time of binding ([2]; 25° C., 2 nM 125I-insulin): approximately 20 min; time for binding to attain equilibrium ([2]; 25° C., 2 nM 125I-insulin): ≤ 1.5 h; pKd ([2]; IBP immobilized on plastic surface, 125I-insulin, 25° C. for 3 h, read-out: Kd of insulin binding to immobilized IBP (Scatchard)): 8.52
FSWGAEGQR [EAE, FSWGAEGQR]	0.3	–	–
THYGSLPQKAQGHRPQDEG [S82, THYGSLPQKAQGHRPQDEG]	0.2	–	–
TTHYQKG [S28, TTHYQKG]	0.3	–	–
YGSLPQKAQGHRPQDEG [S81, YGSLPQKAQGHRPQDEG]	0.6	–	–
atrial naturiuretic peptide	–	less than 1%	–
calcitonin	–	less than 1%	–
parathyroid hormone	–	less than 1%	–
